Here are results for 3 compounds from patent US8067529B2, “Immunogenic T-helper epitopes from human tumour antigens and immunotherapeutic methods using said epitopes” (Immatics Biotechnologies GmbH, priority 2004, dated 2011).

Assay type in all cases: cell-based, human
One assay concerns T-helper cell line. As to the kind of experiment: T-helper cell proliferation by thymidine incorporation (stimulation index). The following applies: T-helper cell line with irradiated autologous PBMC; 10 μM peptide or 3 μg/ml PHA; thymidine incorporation at 72 hours. As to the method:
3×10^5 matured DC were loaded for two hours with 10 μM of peptide […] (SEQ ID NO: 1) in a 24-well plate and extensively washed. Then 4×10^6 fresh autologous PBMC were added onto DC in the presence of 10 ng/ml IL-12p70 in order to favour Th-1 development. PBMC were weekly restimulated with peptide-loaded irradiated autologous PBMC in the presence of 10 U/ml IL-2 and 5 ng/ml IL-7. After 3 and 5 restimulations, T cells were pooled and tested against autologous PBMC in the presence of peptide. […]
T-helper cell activation was tested by cell proliferation as estimated by thymidine incorporation as well as cytokine secretion. […] After 54 hours, 50 μl of tritiated thymidine-containing medium (0.074 MBq/well, Hartmann Analytic, Braunschweig, Germany) was added and thymidine incorporation measured at 72 hours using a scintillation counter (Microbeta, Wallac, Freiburg, Germany). Cell proliferation is expressed as a stimulation index (S.I.), which corresponds to the ratio: (mean cpm of stimulated T cells)/(mean cpm of unstimulated T cells). IL-2 secretion was measured using the IL-2 dependent CTLL-2 cell line. […] Then, thymidine-containing-medium (0.055 MBq/well) was added for 7-8 additional hours and thymidine incorporation was measured as described above. Results are also expressed as a S.I.
A general note: Dividing cells build labelled thymidine or BrdU into new DNA.

The test system of the next assay is IL-6. As to the kind of experiment: IL-6 secretion by sandwich ELISA. The following applies: T-helper cell line; 10 μM peptide or 3 μg/ml PHA. As to the method: (§1) T-helper cell activation was tested by cell proliferation as estimated by thymidine incorporation as well as cytokine secretion. Briefly, 2×10^5 cells were incubated in triplicates in a 96-well plate with 2×10^5 irradiated autologous PBMC in the presence or absence of 10 μM peptide or 3 μg/ml PHA. After 24 hours, two portions of 50 μl supernatant were harvested and frozen and 50 μl fresh medium was added to the cells. After 54 hours, 50 μl of tritiated thymidine-containing medium (0.074 MBq/well, Hartmann Analytic, Braunschweig, Germany) was added and thymidine incorporation measured at 72 hours using a scintillation counter (Microbeta, Wallac, Freiburg, Germany). Cell proliferation is expressed as a stimulation index (S.I.), which corresponds to the ratio: (mean cpm of stimulated T cells)/(mean cpm of unstimulated T cells). IL-2 secretion was measured using the IL-2 dependent CTLL-2 cell line. […] Then, thymidine-containing-medium (0.055 MBq/well) was added for 7-8 additional hours and thymidine incorporation was measured as described above. Results are also expressed as a S.I. IFN-γ, IL-4 and IL-6 secretion was measured by sandwich ELISA using antibody pairs and peroxidase-conjugated streptavidin from PharMingen and according to Manufacturer's recommendations. […] OD450 was then measured and results expressed in pg/ml according to the standards.
For orientation: In an ELISA, binding on a coated surface is turned into a signal by an enzyme label.

A further assay deals with IL-2. In words: IL-2 secretion measured with the IL-2 dependent CTLL-2 cell line. The following applies: T-helper cell line with autologous PBMC; 10 μM peptide or 3 μg/ml PHA; 24 hours supernatant. As to the method:
T-helper cell activation was tested by cell proliferation as estimated by thymidine incorporation as well as cytokine secretion. Briefly, 2×10^5 cells were incubated in triplicates in a 96-well plate with 2×10^5 irradiated autologous PBMC in the presence or absence of 10 μM peptide or 3 μg/ml PHA. After 24 hours, two portions of 50 μl supernatant were harvested and frozen and 50 μl fresh medium was added to the cells. After 54 hours, 50 μl of tritiated thymidine-containing medium (0.074 MBq/well, Hartmann Analytic, Braunschweig, Germany) was added and thymidine incorporation measured at 72 hours using a scintillation counter (Microbeta, Wallac, Freiburg, Germany). Cell proliferation is expressed as a stimulation index (S.I.), which corresponds to the ratio: (mean cpm of stimulated T cells)/(mean cpm of unstimulated T cells). IL-2 secretion was measured using the IL-2 dependent CTLL-2 cell line. Briefly, 10^4 cells were incubated in the presence of supernatants for 20-24 hours. Then, thymidine-containing-medium (0.055 MBq/well) was added for 7-8 additional hours and thymidine incorporation was measured as described above. Results are also expressed as a S.I.

For the next assay, the system named is IL-4. As to the kind of experiment: IL-4 secretion by sandwich ELISA. The following applies: T-helper cell line; 10 μM peptide or 3 μg/ml PHA. As to the method: as §1
The test system of the next assay is Ii-fusion proteins. In words: Endosomal/lysosomal targeting of the fusion proteins (chloroquin, Western blot with mAb PIN.1). Conditions: transfectants incubated 4 h with increasing amounts of chloroquin (10-100 μM). Here is the method:
Fusion proteins were detected by Western blot analysis using the mAb PIN.1 (Stressgen, Biomol, Hamburg, Germany) which binds to amino acid residues 12-28 of Ii. Briefly, cells were lysed as described (Hsieh, C. S., deRoos, P., Honey, K., Beers, C. & Rudensky, A. Y. (2002) J. Immunol. 168, 2618-2625), lysates were boiled in Laemmli loading buffer, separated on a 12% SDS-PAGE and transferred onto nitrocellulose membranes. After a saturation step with BSA, membranes were incubated for 1 h at room temperature with the mAb PIN.1 (1 μg/ml). Proteins were visualised using a peroxidase-coupled sheep anti-mouse IgG (Amersham Pharmacia, Freiburg, Germany). […] Cells were then lysed and proteins were detected by Western blot as described above.
It has already been described that the N-terminus of Ii is sufficient to target proteins into the MHC class II pathway (Sanderson, S., Frauwirth, K. & Shastri, N. (1995) Proc. Natl. Acad. Sci. U.S. A 92, 7217-7221, Wang, R. F., Wang, X., Atwood, A. C., Topalian, S. L. & Rosenberg, S. A. (1999) Science 284, 1351-1354, Malcherek, G., Wirblich, C., Willcox, N., Rammensee, H. G., Trowsdale, J. & Melms, A. (1998) Eur. J. Immunol. 28, 1524-1533). […] Cells were then lysed and fusion proteins were detected by Western blot.
For orientation: In western blotting, separated proteins are transferred to a membrane and probed.

The subject of a further assay is IFN-γ. In words: IFN-γ secretion by sandwich ELISA. Conditions: peptide-induced T-cell stimulation, 10 μM peptide; 24 hours supernatant. As to the method:
as §1

Regarding Phytohaemagglutinin [PHA], the “T-cell proliferation, stimulation index (S.I.)” value with T-helper cell line was 330. The IL-6 secretion result in the assay with IL-6 is on record as “moderately”. Also, in the assay on IL-2, the “IL-2 production of the T cells” value is “still sensitive to PHA stimulation”. The IL-4 secretion result in the assay on IL-4 was “highly”.

Consider `CCN(CC)CCCC(C)Nc1ccnc2cc(Cl)ccc12` (stereo not shown) [chloroquin], for which the “fusion protein amounts (Western blot band intensity)” value in the assay on Ii-fusion proteins was “fusion protein amounts increase with chloroquin concentrations”.

With “NPPSMVAAGSVVAAV (listed as Homo sapiens) [cyclin D1 peptide, immunogenic HLA-DR4-presented cyclin D1 peptide antigen]”, the IFN-γ secretion in the assay on IFN-γ amounted to 3250 pg/mL. For the same compound, in the assay on T-helper cell line, the “T-cell proliferation, stimulation index (S.I.)” value was determined as 5.4. In addition, the IL-6 secretion entry in the assay on IL-6 is “no IL-4 or IL-6 secretion”. The “IL-2 production of the T cells” value in the assay with IL-2 is listed as “produced IL-2 in response to the peptide, although to a low extent”. Moreover, the IL-4 secretion entry with IL-4 is reported as “no IL-4 or IL-6 secretion”.
